Earlier results as cited in article PMC7343746, “(2S, 4R)-4-[^18F]Fluoroglutamine for In vivo PET Imaging of Glioma Xenografts in Mice: an Evaluation of Multiple Pharmacokinetic Models” (Molecular Imaging and Biology, 2020).

Tested on: alanine aminotransferase
Design: method as in PMID 22613816
Conditions: cited from earlier work

N[C@@H](C[C@@H]([18F])C(=O)O)C(=O)O [(2S, 4R)-4-[^18F]fluoroglutamate]
Efficiency of processing and defluorination versus non-fluorinated natural counterpart: 5.6 times
